Active and inactive are the calls of the source. The rule behind the calls is not given here.
Assays:
SK-BR-3 = test: Antiproliferative activity against human SK-BR-3 cells after 48 hrs by MTT assay; assay type: functional, cell-based; conditions: SK-BR-3, 48 h
HL-60 = test: Antiproliferative activity against human HL60 cells after 48 hrs by MTT assay; assay type: functional, cell-based; conditions: HL-60, 48 h
HEL = test: Antiproliferative activity against human HEL cells after 48 hrs by MTT assay; assay type: functional, cell-based
Saccharomyces cerevisiae [1] = test: Induction of DNA damage in Saccharomyces cerevisiae FM588 expressing rad52 gene assessed as growth inhibition at 5 to 100 uM after 24 hrs; assay type: functional
Saccharomyces cerevisiae [2] = test: Induction of DNA damage in Saccharomyces cerevisiae FM888 harboring rad52 deletion mutant assessed as growth inhibition at 5 to 100 uM after 24 hrs; assay type: functional
[3] = biological target: DNA topoisomerase 2-alpha (Homo sapiens) (UniProt P11388); test: Poison activity at human topoisomerase-2 alpha assessed as increase in supercoiled pRYG DNA cleavage at 100 uM after 10 min
[4] = biological target: DNA topoisomerase 2-alpha (Homo sapiens) (UniProt P11388); test: Inhibition of human topoisomerase-2 alpha assessed as reduction in relaxation of supercoiled pRYG DNA at 100 uM after 30 min by agarose gel electrophoresis

Sequence of DNA topoisomerase 2-alpha (Homo sapiens) (P11388 whole entry): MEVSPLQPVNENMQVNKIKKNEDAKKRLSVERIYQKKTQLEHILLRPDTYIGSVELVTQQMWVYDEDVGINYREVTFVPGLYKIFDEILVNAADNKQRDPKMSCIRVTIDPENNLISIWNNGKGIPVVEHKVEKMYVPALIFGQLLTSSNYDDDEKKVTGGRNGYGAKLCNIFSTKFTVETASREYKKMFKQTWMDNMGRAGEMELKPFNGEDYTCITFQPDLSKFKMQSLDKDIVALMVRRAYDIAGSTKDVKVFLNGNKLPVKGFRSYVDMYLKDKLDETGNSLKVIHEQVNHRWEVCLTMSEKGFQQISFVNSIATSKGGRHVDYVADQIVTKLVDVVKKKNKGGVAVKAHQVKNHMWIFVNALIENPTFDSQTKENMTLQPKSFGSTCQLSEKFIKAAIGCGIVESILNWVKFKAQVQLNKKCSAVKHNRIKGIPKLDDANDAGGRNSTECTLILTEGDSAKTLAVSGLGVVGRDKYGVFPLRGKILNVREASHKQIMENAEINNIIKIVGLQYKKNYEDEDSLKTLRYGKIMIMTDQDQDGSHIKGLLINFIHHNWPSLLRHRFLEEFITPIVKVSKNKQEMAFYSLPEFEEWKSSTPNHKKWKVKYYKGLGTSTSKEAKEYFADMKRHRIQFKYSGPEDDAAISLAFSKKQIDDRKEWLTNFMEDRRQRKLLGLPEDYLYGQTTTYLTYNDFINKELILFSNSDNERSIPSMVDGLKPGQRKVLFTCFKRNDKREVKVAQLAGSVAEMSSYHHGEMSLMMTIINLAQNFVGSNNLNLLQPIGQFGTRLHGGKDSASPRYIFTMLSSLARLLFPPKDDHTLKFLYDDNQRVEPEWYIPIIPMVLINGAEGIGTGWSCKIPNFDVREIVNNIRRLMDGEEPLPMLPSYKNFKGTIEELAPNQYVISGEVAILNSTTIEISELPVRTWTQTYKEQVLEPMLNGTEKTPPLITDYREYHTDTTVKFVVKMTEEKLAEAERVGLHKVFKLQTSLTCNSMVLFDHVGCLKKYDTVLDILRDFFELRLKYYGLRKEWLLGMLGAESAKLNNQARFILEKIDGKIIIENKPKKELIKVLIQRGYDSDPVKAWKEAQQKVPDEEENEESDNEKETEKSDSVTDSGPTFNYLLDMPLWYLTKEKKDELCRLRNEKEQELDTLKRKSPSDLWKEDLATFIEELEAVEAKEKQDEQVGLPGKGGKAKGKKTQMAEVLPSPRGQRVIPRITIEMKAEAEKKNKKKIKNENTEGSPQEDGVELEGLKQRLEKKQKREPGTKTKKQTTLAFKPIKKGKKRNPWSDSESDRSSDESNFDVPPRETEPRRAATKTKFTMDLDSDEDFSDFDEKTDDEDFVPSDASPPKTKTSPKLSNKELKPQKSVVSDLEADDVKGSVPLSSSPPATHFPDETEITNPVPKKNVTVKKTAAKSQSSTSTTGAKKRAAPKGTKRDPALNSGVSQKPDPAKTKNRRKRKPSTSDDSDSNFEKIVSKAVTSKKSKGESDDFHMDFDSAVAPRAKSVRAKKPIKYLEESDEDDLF

C#Cc1cc2c3c(cccc3c1)C(=O)N(CCN(C)C)C2=O
IC50 (SK-BR-3): > 10 µM
IC50 (HL-60): 10 µM
IC50 (HEL): 8.1 µM
Activity (Saccharomyces cerevisiae [1]): Active
Activity (Saccharomyces cerevisiae [2]): Active

COc1ccc(C#Cc2cc3c4c(cccc4c2)C(=O)N(CCN(C)C)C3=O)cc1
IC50 (SK-BR-3): 2.1 µM
IC50 (HL-60): 1.1 µM
IC50 (HEL): 2 µM
Activity (Saccharomyces cerevisiae [1]): Active
Activity (Saccharomyces cerevisiae [2]): Active

COc1cc([C@@H]2c3cc4c(cc3[C@@H](O[C@@H]3O[C@@H]5CO[C@@H](C)O[C@H]5[C@H](O)[C@H]3O)[C@H]3COC(=O)[C@H]23)OCO4)cc(OC)c1O
Activity [3]: Active

CN(C)CCN1C(=O)c2cccc3cc(C#Cc4cccc([N+](=O)[O-])c4)cc(c23)C1=O
IC50 (SK-BR-3): > 10 µM
IC50 (HL-60): 13.6 µM
IC50 (HEL): 21.7 µM
Activity (Saccharomyces cerevisiae [1]): Active
Activity (Saccharomyces cerevisiae [2]): Active

CN(C)CCN1C(=O)c2cccc3cc(C#Cc4ccoc4)cc(c23)C1=O
IC50 (SK-BR-3): 9.6 µM
IC50 (HL-60): 3.5 µM
IC50 (HEL): 5.6 µM
Topoisomerase 2-alpha inhibition (active/not active) [4]: Active
Activity (Saccharomyces cerevisiae [1]): Active
Activity (Saccharomyces cerevisiae [2]): Active

CN(C)CCN1C(=O)c2cccc3cc(C#Cc4cccc(O)c4)cc(c23)C1=O
IC50 (SK-BR-3): > 30 µM
IC50 (HL-60): 10.2 µM
IC50 (HEL): 1.2 µM
Activity (Saccharomyces cerevisiae [1]): Active
Activity (Saccharomyces cerevisiae [2]): Active

CN(C)CCN1C(=O)c2cccc3cc(C#Cc4ccsc4)cc(c23)C1=O
IC50 (SK-BR-3): > 10 µM
IC50 (HL-60): 5.4 µM
IC50 (HEL): 5 µM
Topoisomerase 2-alpha inhibition (active/not active) [4]: Active
Activity [3]: Active
Activity (Saccharomyces cerevisiae [1]): Active
Activity (Saccharomyces cerevisiae [2]): Active

CN(C)CCN1C(=O)c2cccc3cc(C#Cc4ccccc4)cc(c23)C1=O
IC50 (SK-BR-3): 4.6 µM
IC50 (HL-60): 4.6 µM
IC50 (HEL): 1.4 µM
Topoisomerase 2-alpha inhibition (active/not active) [4]: Active
Activity (Saccharomyces cerevisiae [1]): Active
Activity (Saccharomyces cerevisiae [2]): Active

CN(C)CCN1C(=O)c2cccc3cc(C#Cc4ccc(O)cc4)cc(c23)C1=O
IC50 (SK-BR-3): 2.1 µM
IC50 (HL-60): 5.7 µM
IC50 (HEL): 13.1 µM
Activity (Saccharomyces cerevisiae [1]): inactive
Activity (Saccharomyces cerevisiae [2]): inactive

CN(C)CCN1C(=O)c2cccc3cc(N)cc(c23)C1=O [AMONAFIDE]
IC50 (HL-60): 3.4 µM
IC50 (HEL): 4 µM

COc1cccc(C#Cc2cc3c4c(cccc4c2)C(=O)N(CCN(C)C)C3=O)c1
IC50 (SK-BR-3): 2 µM
IC50 (HL-60): 1 µM
IC50 (HEL): 1 µM
Activity (Saccharomyces cerevisiae [1]): Active
Activity (Saccharomyces cerevisiae [2]): Active

CN(C)CCN1C(=O)c2cccc3cc(C#Cc4cccc(C(F)(F)F)c4)cc(c23)C1=O
IC50 (SK-BR-3): 0.1 µM
IC50 (HL-60): 2.3 µM
IC50 (HEL): 2.2 µM
Topoisomerase 2-alpha inhibition (active/not active) [4]: inactive
Activity (Saccharomyces cerevisiae [1]): Active
Activity (Saccharomyces cerevisiae [2]): Active

Reference: ChEMBL document CHEMBL3992556, “5-Ethynylarylnaphthalimides as antitumor agents: Synthesis and biological evaluation” (Bioorg Med Chem, 2017)
